In brackets after ≈: the same amount, converted by molar mass.
Key:
A549 [1] = assay: Antiproliferative activity against human A549 cells assessed as cell growth inhibition incubated for 48 hrs by MTT assay; format: functional, cell-based; details: A549, 48 h
HCT-116 [2] = assay: Antiproliferative activity against human HCT-116 cells assessed as cell growth inhibition incubated for 48 hrs by MTT assay; format: functional, cell-based; details: HCT-116, 48 h
MCF7 [3] = assay: Antiproliferative activity against human MCF7 cells assessed as cell growth inhibition incubated for 48 hrs by MTT assay; format: functional, cell-based; details: MCF7, 48 h
SK-MEL-28 [4] = assay: Antiproliferative activity against human SK-MEL-28 cells assessed as cell growth inhibition incubated for 48 hrs by MTT assay; format: functional, cell-based; details: SK-MEL-28, 48 h
[5] = Cytotoxicity against human HaCaT cells assessed as cell growth inhibition incubated for 48 hrs by MTT assay; format: toxicity, cell-based
A549 [6] = assay: Antiproliferative activity against human A549 cells assessed as cell growth inhibition at 20 uM incubated for 48 hrs by MTT assay; format: functional
HCT-116 [7] = assay: Antiproliferative activity against human HCT-116 cells assessed as cell growth inhibition at 20 uM incubated for 48 hrs by MTT assay; format: functional
MCF7 [8] = assay: Antiproliferative activity against human MCF7 cells assessed as cell growth inhibition at 20 uM incubated for 48 hrs by MTT assay; format: functional
SK-MEL-28 [9] = assay: Antiproliferative activity against human SK-MEL-28 cells assessed as cell growth inhibition at 20 uM incubated for 48 hrs by MTT assay; format: functional
A549 [10] = assay: Antiproliferative activity against human A549 cells assessed as reduction in cell viability; format: functional, cell-based
[11] = Cytotoxicity against human L02 cells assessed as reduction in cell viability; format: toxicity, cell-based
[12] = Selectivity index, ratio of IC50 for cytotoxicity against human L02 cells to IC50 for antiproliferative activity against human A549 cells; format: toxicity, cell-based; details: L02 cells and A549 cells, read-out: Ratio IC50
[13] = target: T1, Epidermal growth factor receptor (Homo sapiens, UniProt P00533); assay: Inhibition of EGFR (unknown origin)
[14] = target: Epidermal growth factor receptor (Homo sapiens, UniProt P00533, L858R/T790M); assay: Inhibition of EGFR T790M/L858R mutant (unknown origin)
A2780S = assay: Antiproliferative activity against human A2780S cells assessed as reduction in cell viability incubated for 24 hrs by MTT assay; format: functional, cell-based
SK-OV-3 = assay: Antiproliferative activity against human SK-OV-3 cells assessed as reduction in cell viability incubated for 24 hrs by MTT assay; format: functional, cell-based; details: SK-OV-3, 24 h
[15] = Solubility in human plasma at pH 7.2 to 7.8 incubated for 4 hrs by HPLC analysis; format: ADME, cell-free
MDA-MB-231 = assay: Antiproliferative activity against human MDA-MB-231 cells assessed as reduction in cell viability incubated for 24 hrs by MTT assay; format: functional, cell-based; details: MDA-MB-231, 24 h
MCF7 [16] = assay: Antiproliferative activity against human MCF7 cells assessed as reduction in cell viability incubated for 24 hrs by MTT assay; format: functional, cell-based; details: MCF7, 24 h
[17] = target: T1, Epidermal growth factor receptor; assay: Inhibition of EGFR (unknown origin) using poly E4Y1 and ATP as substrate incubated for 60 mins by ADP-Glo kinase assay

T1 sequence (P00533 whole entry): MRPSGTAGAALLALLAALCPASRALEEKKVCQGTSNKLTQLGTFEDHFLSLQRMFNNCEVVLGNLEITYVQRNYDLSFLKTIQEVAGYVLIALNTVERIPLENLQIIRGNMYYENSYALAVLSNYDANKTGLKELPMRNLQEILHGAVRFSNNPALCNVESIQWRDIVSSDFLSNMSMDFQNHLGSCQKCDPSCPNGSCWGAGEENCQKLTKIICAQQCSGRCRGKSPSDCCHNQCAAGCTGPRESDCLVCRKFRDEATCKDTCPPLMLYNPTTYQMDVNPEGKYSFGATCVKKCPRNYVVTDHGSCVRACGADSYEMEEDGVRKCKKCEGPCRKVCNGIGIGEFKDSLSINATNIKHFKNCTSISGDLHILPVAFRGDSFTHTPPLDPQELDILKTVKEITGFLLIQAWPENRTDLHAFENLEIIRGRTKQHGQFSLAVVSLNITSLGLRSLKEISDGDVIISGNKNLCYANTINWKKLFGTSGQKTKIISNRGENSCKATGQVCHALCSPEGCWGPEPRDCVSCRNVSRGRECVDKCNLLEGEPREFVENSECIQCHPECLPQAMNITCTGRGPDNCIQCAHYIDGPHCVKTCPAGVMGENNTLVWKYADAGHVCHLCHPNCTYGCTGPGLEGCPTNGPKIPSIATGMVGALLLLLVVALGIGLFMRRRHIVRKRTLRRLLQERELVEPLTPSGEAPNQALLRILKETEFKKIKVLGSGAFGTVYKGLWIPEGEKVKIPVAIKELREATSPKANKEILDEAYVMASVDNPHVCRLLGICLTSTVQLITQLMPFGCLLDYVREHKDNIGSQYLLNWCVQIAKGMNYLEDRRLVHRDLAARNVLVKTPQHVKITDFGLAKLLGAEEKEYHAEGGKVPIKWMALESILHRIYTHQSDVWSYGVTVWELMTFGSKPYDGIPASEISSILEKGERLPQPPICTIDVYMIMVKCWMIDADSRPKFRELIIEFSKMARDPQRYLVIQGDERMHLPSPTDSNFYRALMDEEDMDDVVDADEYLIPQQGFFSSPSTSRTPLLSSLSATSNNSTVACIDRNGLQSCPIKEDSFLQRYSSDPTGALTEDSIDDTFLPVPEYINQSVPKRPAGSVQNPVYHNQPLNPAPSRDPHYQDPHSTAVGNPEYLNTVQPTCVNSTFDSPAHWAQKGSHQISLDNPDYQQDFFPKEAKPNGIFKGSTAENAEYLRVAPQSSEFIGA
Epidermal growth factor receptor (Homo sapiens, UniProt P00533, L858R/T790M), sequence (P00533 25-1210 T790M/L858R limits assumed): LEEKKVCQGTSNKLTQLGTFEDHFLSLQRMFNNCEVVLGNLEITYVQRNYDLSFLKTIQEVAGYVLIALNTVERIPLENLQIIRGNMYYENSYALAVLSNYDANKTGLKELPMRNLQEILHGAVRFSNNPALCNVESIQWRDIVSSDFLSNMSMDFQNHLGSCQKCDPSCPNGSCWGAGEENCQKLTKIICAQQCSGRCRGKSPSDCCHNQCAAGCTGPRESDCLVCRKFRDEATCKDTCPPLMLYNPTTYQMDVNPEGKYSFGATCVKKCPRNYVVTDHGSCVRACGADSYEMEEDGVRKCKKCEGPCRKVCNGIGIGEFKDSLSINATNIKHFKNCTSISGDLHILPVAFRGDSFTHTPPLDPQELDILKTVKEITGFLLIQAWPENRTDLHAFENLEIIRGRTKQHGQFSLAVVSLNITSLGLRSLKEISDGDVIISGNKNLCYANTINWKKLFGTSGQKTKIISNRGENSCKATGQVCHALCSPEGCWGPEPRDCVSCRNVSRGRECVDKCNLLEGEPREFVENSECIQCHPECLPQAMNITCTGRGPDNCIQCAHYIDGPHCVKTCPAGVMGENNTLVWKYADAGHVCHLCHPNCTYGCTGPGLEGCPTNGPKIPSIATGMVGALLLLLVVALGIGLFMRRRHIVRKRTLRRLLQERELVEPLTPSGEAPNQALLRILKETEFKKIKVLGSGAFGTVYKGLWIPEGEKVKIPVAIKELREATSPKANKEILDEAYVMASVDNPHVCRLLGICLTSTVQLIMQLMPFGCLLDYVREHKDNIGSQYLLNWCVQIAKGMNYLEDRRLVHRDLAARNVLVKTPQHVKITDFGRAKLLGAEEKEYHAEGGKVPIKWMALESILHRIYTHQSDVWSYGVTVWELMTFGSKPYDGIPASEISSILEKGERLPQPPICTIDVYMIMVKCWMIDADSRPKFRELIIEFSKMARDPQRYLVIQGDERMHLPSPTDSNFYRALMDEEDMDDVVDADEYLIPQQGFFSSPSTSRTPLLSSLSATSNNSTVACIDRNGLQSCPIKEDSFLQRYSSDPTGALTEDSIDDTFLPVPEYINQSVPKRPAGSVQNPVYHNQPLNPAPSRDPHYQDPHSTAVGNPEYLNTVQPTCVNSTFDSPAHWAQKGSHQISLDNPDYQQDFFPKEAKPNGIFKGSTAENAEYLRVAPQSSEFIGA

Cc1sc([Se]c2sc(C)c(-c3ccccc3)c2C(=O)NC(C)C(=O)N2CCCC2)c(C(=O)NC(C)C(=O)N2CCCC2)c1-c1ccccc1 (stereo not drawn)
IC50 (A549 [1]): 15 µM | IC50 (HCT-116 [2]): 8.19 µM | IC50 (MCF7 [3]): 15.1 µM | IC50 (SK-MEL-28 [4]): 10.5 µM | IC50 at 48 h [5]: 26.4 µM | inhibition at 20 µM (A549 [6]): 82% | inhibition at 20 µM (HCT-116 [7]): 69% | inhibition at 20 µM (MCF7 [8]): 90% | inhibition at 20 µM (SK-MEL-28 [9]): 72%

Cc1sc([Se]c2sc(C)c(-c3ccccc3)c2C(=O)NCC(=O)N2CCCC2)c(C(=O)NCC(=O)N2CCCC2)c1-c1ccccc1
inhibition at 20 µM (A549 [6]): 45% | inhibition at 20 µM (HCT-116 [7]): 25% | inhibition at 20 µM (MCF7 [8]): 89% | inhibition at 20 µM (SK-MEL-28 [9]): < 10%

COc1cc(C2c3cc4c(cc3C(OC3OC5COC(C)OC5C(O)C3O)C3COC(=O)C23)OCO4)cc(OC)c1O (stereo not drawn)
IC50 (A549 [10]): 9.4 µM | IC50 [11]: 3.5 µM | selectivity ratio [12]: 0.5

Cc1sc([Se]c2sc(C)c(-c3cccc(F)c3)c2C(=O)NC(CO)C(=O)N2CCCC2)c(C(=O)NC(CO)C(=O)N2CCCC2)c1-c1cccc(F)c1 (stereo not drawn)
inhibition at 20 µM (A549 [6]): 27% | inhibition at 20 µM (HCT-116 [7]): 61% | inhibition at 20 µM (MCF7 [8]): 85% | inhibition at 20 µM (SK-MEL-28 [9]): 25%

Cc1sc([Se]c2sc(C)c(-c3cccc(F)c3)c2C(=O)NC(CC(C)C)C(=O)N2CCCC2)c(C(=O)NC(CC(C)C)C(=O)N2CCCC2)c1-c1cccc(F)c1 (stereo not drawn)
inhibition at 20 µM (A549 [6]): 52% | inhibition at 20 µM (HCT-116 [7]): 57% | inhibition at 20 µM (MCF7 [8]): 70% | inhibition at 20 µM (SK-MEL-28 [9]): 18%

Cc1sc([Se]c2sc(C)c(-c3cccc(F)c3)c2C(=O)NC(C(=O)N2CCCC2)C(C)C)c(C(=O)NC(C(=O)N2CCCC2)C(C)C)c1-c1cccc(F)c1 (stereo not drawn)
inhibition at 20 µM (A549 [6]): 35% | inhibition at 20 µM (HCT-116 [7]): 63% | inhibition at 20 µM (MCF7 [8]): 58% | inhibition at 20 µM (SK-MEL-28 [9]): 36%

O=C(N/N=C/c1cnc(N2CCCC2)nc1)Nc1cc2c(Nc3ccc(F)c(Cl)c3)ncnc2cc1O[C@@H]1CCOC1
IC50 [13]: 0.0063 µM | IC50 [14]: 0.0084 µM

Cc1sc([Se]c2sc(C)c(-c3cccc(Cl)c3)c2C(=O)NC(Cc2ccccc2)C(=O)N2CCCC2)c(C(=O)NC(Cc2ccccc2)C(=O)N2CCCC2)c1-c1cccc(Cl)c1 (stereo not drawn)
inhibition at 20 µM (A549 [6]): 23% | inhibition at 20 µM (HCT-116 [7]): 15% | inhibition at 20 µM (MCF7 [8]): 13% | inhibition at 20 µM (SK-MEL-28 [9]): 22%

O=c1[nH]cc(F)c(=O)[nH]1 [FLUOROURACIL]
IC50 (A549 [1]): 18.6 µM | IC50 (HCT-116 [2]): 16.7 µM | IC50 (MCF7 [3]): 15.2 µM | IC50 (SK-MEL-28 [4]): 10.2 µM

Cc1sc([Se]c2sc(C)c(-c3cccc(Cl)c3)c2C(=O)NC(C)C(=O)N2CCCC2)c(C(=O)NC(C)C(=O)N2CCCC2)c1-c1cccc(Cl)c1 (stereo not drawn)
inhibition at 20 µM (A549 [6]): 38% | inhibition at 20 µM (HCT-116 [7]): 70% | inhibition at 20 µM (MCF7 [8]): 90% | inhibition at 20 µM (SK-MEL-28 [9]): 13%

Cc1sc(Br)c(C(=O)NC(CO)C(=O)N2CCCC2)c1-c1cccc(Cl)c1 (stereo not drawn)
IC50 (A549 [1]): 33.9 µM | IC50 (HCT-116 [2]): 34.5 µM | IC50 (MCF7 [3]): 36.9 µM | IC50 (SK-MEL-28 [4]): 57.1 µM

Cc1sc([Se]c2sc(C)c(-c3cccc(Br)c3)c2C(=O)NC(Cc2ccccc2)C(=O)N2CCCC2)c(C(=O)NC(Cc2ccccc2)C(=O)N2CCCC2)c1-c1cccc(Br)c1 (stereo not drawn)
inhibition at 20 µM (A549 [6]): 14% | inhibition at 20 µM (HCT-116 [7]): 9% | inhibition at 20 µM (MCF7 [8]): 26% | inhibition at 20 µM (SK-MEL-28 [9]): 18%

Cc1sc([Se]c2sc(C)c(-c3cccc(Cl)c3)c2C(=O)NC(C(=O)N2CCCC2)C(C)C)c(C(=O)NC(C(=O)N2CCCC2)C(C)C)c1-c1cccc(Cl)c1 (stereo not drawn)
inhibition at 20 µM (A549 [6]): 36% | inhibition at 20 µM (HCT-116 [7]): 47% | inhibition at 20 µM (MCF7 [8]): 64% | inhibition at 20 µM (SK-MEL-28 [9]): < 10%

Cc1sc(Br)c(C(=O)NC(C)C(=O)N2CCCC2)c1-c1ccccc1 (stereo not drawn)
IC50 (A549 [1]): 40.1 µM | IC50 (HCT-116 [2]): 37 µM | IC50 (MCF7 [3]): 39.2 µM | IC50 (SK-MEL-28 [4]): 55 µM

Cc1sc([Se]c2sc(C)c(-c3cccc(F)c3)c2C(=O)NCC(=O)N2CCCC2)c(C(=O)NCC(=O)N2CCCC2)c1-c1cccc(F)c1
IC50 (A549 [1]): 17.4 µM | IC50 (HCT-116 [2]): 9.22 µM | IC50 (MCF7 [3]): 13.4 µM | IC50 (SK-MEL-28 [4]): 11.5 µM | IC50 at 48 h [5]: 24.7 µM | inhibition at 20 µM (A549 [6]): 79% | inhibition at 20 µM (HCT-116 [7]): 73% | inhibition at 20 µM (MCF7 [8]): 88% | inhibition at 20 µM (SK-MEL-28 [9]): 70%

COc1ccc(/C=C/C(=O)c2ccc(OC)c3c2OC(C)(C)C=C3)cc1OC(=O)CNC(=O)OC(C)(C)C
IC50 (A2780S): 0.12 µM | IC50 (SK-OV-3): 0.12 µM | solubility at 4 h [15]: 2980 µg/mL (≈ 5.69 mM) | IC50 (MDA-MB-231): 0.12 µM | IC50 (MCF7 [16]): 0.12 µM

COc1ccc(/C=C/C(=O)c2ccc(OC)c3c2OC(C)(C)C=C3)cc1O
IC50 (A2780S): 0.42 µM | IC50 (SK-OV-3): 0.42 µM | solubility at 4 h [15]: 146 µg/mL (≈ 0.398 mM) | IC50 (MDA-MB-231): 0.42 µM | IC50 (MCF7 [16]): 0.42 µM

Cc1sc([Se]c2sc(C)c(-c3cccc(Br)c3)c2C(=O)NC(C(=O)N2CCCC2)C(C)C)c(C(=O)NC(C(=O)N2CCCC2)C(C)C)c1-c1cccc(Br)c1 (stereo not drawn)
inhibition at 20 µM (A549 [6]): 44% | inhibition at 20 µM (HCT-116 [7]): 51% | inhibition at 20 µM (MCF7 [8]): 72% | inhibition at 20 µM (SK-MEL-28 [9]): 34%

Cc1sc(Br)c(C(=O)NCC(=O)N2CCCC2)c1-c1cccc(F)c1
IC50 (A549 [1]): 42.6 µM | IC50 (HCT-116 [2]): 39 µM | IC50 (MCF7 [3]): 43.7 µM | IC50 (SK-MEL-28 [4]): 40.1 µM

Cc1sc(Br)c(C(=O)NC(C)C(=O)N2CCCC2)c1-c1cccc(F)c1 (stereo not drawn)
IC50 (A549 [1]): 44.6 µM | IC50 (HCT-116 [2]): 31 µM | IC50 (MCF7 [3]): 47.7 µM | IC50 (SK-MEL-28 [4]): 49.4 µM

c1ccc2c(c1)CCN2c1ncnc2cc3c(cc12)NCN3CCN1CCCC1
IC50 [13]: 0.032 µM

Cc1sc([Se]c2sc(C)c(-c3cccc(Cl)c3)c2C(=O)NC(CO)C(=O)N2CCCC2)c(C(=O)NC(CO)C(=O)N2CCCC2)c1-c1cccc(Cl)c1 (stereo not drawn)
IC50 (A549 [1]): 15.7 µM | IC50 (HCT-116 [2]): 6.83 µM | IC50 (MCF7 [3]): 11.2 µM | IC50 (SK-MEL-28 [4]): 13.8 µM | IC50 at 48 h [5]: 31.8 µM | inhibition at 20 µM (A549 [6]): 86% | inhibition at 20 µM (HCT-116 [7]): 75% | inhibition at 20 µM (MCF7 [8]): 64% | inhibition at 20 µM (SK-MEL-28 [9]): 66% | IC50 [17]: 0.727 µM

Cc1sc([Se]c2sc(C)c(-c3cccc(F)c3)c2C(=O)NC(C)C(=O)N2CCCC2)c(C(=O)NC(C)C(=O)N2CCCC2)c1-c1cccc(F)c1 (stereo not drawn)
IC50 (A549 [1]): 13.2 µM | IC50 (HCT-116 [2]): 8.11 µM | IC50 (MCF7 [3]): 14.4 µM | IC50 (SK-MEL-28 [4]): 14.3 µM | IC50 at 48 h [5]: 29.3 µM | inhibition at 20 µM (A549 [6]): 77% | inhibition at 20 µM (HCT-116 [7]): 72% | inhibition at 20 µM (MCF7 [8]): 86% | inhibition at 20 µM (SK-MEL-28 [9]): 62% | IC50 [17]: 0.835 µM

Cc1sc(Br)c(C(=O)NC(CO)C(=O)N2CCCC2)c1-c1cccc(Br)c1 (stereo not drawn)
IC50 (A549 [1]): 28.8 µM | IC50 (HCT-116 [2]): 24.7 µM | IC50 (MCF7 [3]): 32.7 µM | IC50 (SK-MEL-28 [4]): 54.6 µM

Cc1sc([Se]c2sc(C)c(-c3cccc(F)c3)c2C(=O)NC(Cc2ccccc2)C(=O)N2CCCC2)c(C(=O)NC(Cc2ccccc2)C(=O)N2CCCC2)c1-c1cccc(F)c1 (stereo not drawn)
inhibition at 20 µM (A549 [6]): 14% | inhibition at 20 µM (HCT-116 [7]): 10% | inhibition at 20 µM (MCF7 [8]): 3% | inhibition at 20 µM (SK-MEL-28 [9]): < 10%
